Assays:
[1] = system: S. aureus; test: Growth of planktonic-growing pathogens (turbidity at 600 nm); format: cell-based, Staphylococcus aureus; settings: 18 h
Description: (§1) In addition, the potential growth-inhibiting effects of synthetic peptides were tested on planktonic-growing pathogens. Again, 3 × 10^8 cells/mL diluted in LB medium were aliquoted in 96-well plates (200 µL for each cavity). Synthetic peptides were added to two selected final concentrations of 3.5 µg/mL and 112.5 µg/mL at the beginning of the experiment. MTPs were closed with gas-permeable membranes and gently shaken at 80 rpm and 37 °C (P. aeruginosa, S. aureus, and S. epidermidis) or 30 °C (K. oxytoca) for 18 h. A comparative endpoint determination (growth control, peptide control IDR-1018, and identified peptides) of the turbidity at 600 nm was measured with plate reader Spectra max Plus 384. An unpaired t-test was conducted as a statistical hypothesis test to determine the significance (p-value) of growth differences.

[2] = system: P. aeruginosa PAO1; test: Biofilm prevention in vitro assay (crystal violet, static); format: cell-based, Pseudomonas aeruginosa; settings: 18 h
Description: (§2) The opportunistic pathogenic bacteria K. oxytoca (DSM 7342, M5a1-type strain), P. aeruginosa PAO1 (DSM 1707, pathogenic-type strain), S. epidermidis RP62A (DSM 28319, clinical isolate from catheter sepsis), and S. aureus (DSM 11823, clinical isolate) were grown in 5 mL LB medium overnight at below-indicated temperatures. The cell concentrations of the overnight cultures were analyzed with Neubauer cell counting and set to 3 × 10^8 cells/mL using GC minimal medium (with 1% (v/v) glycerol and 0.3% (w/v) casamino acids) for K. oxytoca and Caso bouillon (17 g/L casein peptone, 3 g/L soybean peptone, 5 g/L NaCl, 2.5 g/L K2HPO4, and 2.5 g/L glucose) for the remaining strains in the crystal violet assay. Cultures were aliquoted in 96-well plates (180/195 µL for each cavity). Cell-free size-fractionated cell extracts (20 µL) and synthesized peptides (various concentrations, 5 µL) were added to the cultures. MTPs were closed with gas-permeable membranes (Breathe-Easy®, Diversified Biotech, Dedham, MA, USA) and incubated at 37 °C (P. aeruginosa, S. aureus, and S. epidermidis) or 30 °C (K. oxytoca) for 18 h without shaking. Three biological replicates were performed, each with eight technical replicates. Medium controls were performed for normalization. Biofilm formation was monitored and quantified using the crystal violet assay. Following an 18 h incubation period, the cell cultures were removed, and the wells underwent two washes with H2O. Biofilms that developed and adhered to the surfaces were subjected to staining using 200 μL of a 0.1% crystal violet solution (Carl Roth, Karlsruhe, Germany) for 10 min at room temperature (RT). The stained biofilms were left to air dry after eliminating the crystal violet solution through two H2O washes. A total of 200 μL of 96% ethanol was introduced into each stained well to solubilize the dye, and incubation at RT for 15 min followed. Biofilm formation was assessed by measuring the absorbance of resolved crystal violet at 590 nm with the plate reader Spectra max Plus 384 (Molecular Devices, Ismaning; Germany). The screening procedure is depicted in Figure S1.

[3] = system: K. oxytoca; test: Growth of planktonic-growing pathogens (turbidity at 600 nm); format: cell-based, Klebsiella oxytoca; settings: 112.5 µg/mL peptide, LB, 18 h, 80 rpm, 30 °C; mean of 2 biological x 8 technical replicates; control 1.21326667
Description: as §1

[4] = system: K. oxytoca; test: Biofilm prevention in vitro assay (crystal violet, static); format: cell-based, Klebsiella oxytoca; settings: synthetic peptide at highest concentration 112.5 µg/mL, 18 h, versus biofilm control (100%)
Description: as §2

[5] = system: K. oxytoca M5aI; test: Dynamic biofilm formation in microfluidic flow cell (Syto9, CLSM); format: cell-based, Klebsiella oxytoca; settings: peptide 10 ng/channel, GC medium, flow 15 µL/h, 24 h, 30 °C, mean ± SD of four biological x four technical replicates
Description: The microfluidic flow cell system comprises a polymethyl methacrylate corpus with a single channel (1 × 8 × 0.1 mm). Two inlets and one outlet exist. A borosilicate glass (24 × 60 × 0.17 mm; Carl Roth, Karlsruhe, Germany) was fixed with the adhesive Black-Seal silicone (Weicon, Münster, Germany). Microliter syringes (Innovative Labor System GmbH, Stützenbach, Germany) were connected via polytetrafluoroethylene (PTFE) tubes (0.3 mm × 0.6 mm) (Bola, Grünsfeld, Germany) with the in- and outlets and clamped into a syringe pump (Model: 220) (KD Scientific, Holliston, MA, USA). The channel was sterilized by rinsing 70% EtOH for 24 h at a flow rate of 20 µL/h. Afterwards, the remaining ethanol was washed out with sterile water at 20 μL/h for 1 h. Subsequently, the channel was equilibrated with GC medium at 20 μL/h for 2 h. Inoculation was conducted with a cell suspension of 1 × 10^9 cells/mL, generated from an overnight culture of K. oxytoca M5aI. Initial cell adhesion was ensured by incubation at 30 °C for 1 h without any flow. Next, the channel was continuously rinsed at 15 μL/h with GC medium injected within the first inlet. The synthetic peptides IDR-1018 (biofilm-preventing control peptide, [47, 48], BiP_Aa_2, BiP_Aa_5, and BiP_Aa_6 were diluted in GC medium to a concentration of 25 µg/mL and injected within the second inlet. Thus, the final peptide concentration was 12.5 µg/mL, corresponding to 10 ng peptide within the 0.8 µL channel. Biofilm formation was conducted at a flow rate of 15 µL/h for 24 h at 30 °C. The biofilm formation of K. oxytoca M5aI was further studied without adding peptides. Four biological replicates were conducted for each treatment.
Biofilms were stained with the fluorescent dye Syto9 (488 nm) (Life Technologie, Carlsbad, CA, USA) and analyzed using the LSM 700 confocal laser scanning microscope (Zeiss, Oberkochen, Germany). Therefore, the microfluidic flow cells were washed with GC medium at 3 µL/min for 15 min. The channel was then filled with a 1:1000 dilution of the fluorescent dye Syto9 and incubated in the dark at RT for 30 min. Dye residues were removed by rinsing GC medium at 3 μL/min for 15 min. Four image stacks were recorded per flow cell with optical sections of 0.9 µm per z-step. The digital image acquisition, three-dimensional reconstruction, and calculation of the biofilm parameters were performed with the software “Zen Black” (version 14.0.22.201) (Zeiss, Oberkochen, Germany) and the microscopy image analysis software “Imaris” (version 9.9.0) (Oxford Instruments, Abingdon, UK).

[6] = system: P. aeruginosa; test: Growth of planktonic-growing pathogens (turbidity at 600 nm); format: cell-based, Pseudomonas aeruginosa; settings: 18 h
Description: as §1

[7] = system: S. epidermidis; test: as above; format: cell-based, Staphylococcus epidermidis; settings: 18 h
Description: as §1

[8] = system: K. oxytoca, P. aeruginosa, S. epidermidis, and S. aureus; test: Crystal violet biofilm assay, statements on all tested pathogens; format: cell-based; settings: summary in discussion
Description: as §2, with “Three biological replicates were performed, each with eight technical replicates. Medium controls were performed for normalization.” left out, “Following an 18 h incubation period, the cell cultures were removed, and the wells underwent two washes with H2O. Biofilms that developed and adhered to the surfaces were subjected to staining using 200 μL of a 0.1% crystal violet solution (Carl Roth, Karlsruhe, Germany) for 10 min at room temperature (RT). The stained biofilms were left to air dry after eliminating the crystal violet solution through two H2O washes. A total of 200 μL of 96% ethanol was introduced into each stained well to solubilize the dye, and incubation at RT for 15 min followed.” left out, “The screening procedure is depicted in Figure S1.” left out

[9] = system: S. epidermidis RP62A; test: Biofilm prevention in vitro assay (crystal violet, static); format: cell-based, Staphylococcus epidermidis; settings: synthetic peptide at highest concentration 112.5 µg/mL, 18 h, versus biofilm control (100%)
Description: as §2

[10] = 112.5 µg/mL, versus control without peptide

In the case of “VRNSVLFRRRRLVC [BiP_Aa_5, synthetic peptide from sORF of A. aurita EST clone 127_8F]”, the “turbidity (600 nm), S. aureus” value ([1]; 112.5 µg/mL peptide, LB, 80 rpm, 37 °C, mean of 2 biological x 8 technical replicates, control 1.37192917) is reported as 1.312, the “reduction of planktonic growth of S. aureus” value [1, 10] is reported as 1.5–5% and the “effect on P. aeruginosa biofilm formation (in words)” value ([2]; synthetic peptide 0.4-112.5 µg/mL) is reported as “slight interference”. The “reduction of P. aeruginosa biofilm formation at 112.5 µg/mL” value ([2]; synthetic peptide at highest dose 112.5 µg/mL, versus biofilm control (100%)) was 47%, the “turbidity (600 nm), K. oxytoca” value [3] was 1.257 and the “reduction of K. oxytoca biofilm formation at 112.5 µg/mL” value [4] was 54%. For the same sequence, the biofilm thickness ([5]; medium control 11 ± 6 µm) was 7 ± 2 µm, the biofilm volume ([5]; medium control 112 ± 62 µm^3) was 51 ± 25 µm^3 and the “turbidity (600 nm), P. aeruginosa” value ([6]; 112.5 µg/mL peptide, LB, 80 rpm, 37 °C, mean of 2 biological x 8 technical replicates, control 1.2788369) was 1.249. The “reduction of planktonic growth of P. aeruginosa” value [6, 10] was 1.5–5%, the “turbidity (600 nm), S. epidermidis” value ([7]; 112.5 µg/mL peptide, LB, 80 rpm, 37 °C, mean of 2 biological x 8 technical replicates, control 1.3398) was 1.301 and the “reduction of planktonic growth of S. epidermidis” value [7, 10] was 3%. For the same sequence, the “reduction of biofilm masses, all tested pathogens” value [8] was “up to 50%” and the “reduction of S. epidermidis biofilm formation at 112.5 µg/mL” value [9] was 22%.
